Among the data in the CATMoS acute toxicity set (Mansouri et al. 2021) are GHS category values, retold here.

This series can be described thus: GHS categories as the set defines them, by LD50: 1 up to 5, 2 up to 50, 3 up to 300, 4 up to 2000, 5 above 2000 mg/kg. To be noted: rat; in vivo; po.

Molecules are shown by their SMILES.

As for `O=[N+]([O-])c1ccc2c(c1)COP(=S)(N1CCCCC1)O2` (stereo not given), the GHS category stood at 3.
`CCCCCCCCCCCCCCCC[Si](OC)(OC)OC` showed a GHS category of 5.
Turning to `CCOC(=O)c1cnn(-c2cccc(C)c2)c1S(C)(=O)=O`, the GHS category worked out at 4.
The same measure for `CCOC(=O)C(=O)Nc1cccc(OC)c1C(N)=O`: 5.
For the compound `COC(C)CCO` (stereo not given), the GHS category is given as 5.
The same measure for `CC(=O)NC1CCc2nc(N)sc2C1` (stereo not given): 5; for `CN(C(=O)Cl)c1nnc(C(C)(C)C)s1`: 4; for `COc1cc2c(cc1OC)-c1c(C)c3ccc(OC)c(OC)c3c[n+]1CC2`: 4.
`OCCOc1ccc(OCCO)cc1` displayed a GHS category of 5.
The same measure for `C=CC(=C)CC/C=C(\C)CCC=C(C)C`: 5; for `CCCCCCCC[N+](C)(C)[O-]`: 5.
On to `CCCc1c(Cc2ccc(-c3ccccc3-c3nn[nH]n3)cc2)c(=O)nc2nc[nH]n12`, for which the GHS category is reported as 4.
Compound `CC1COC(Cn2cncn2)(c2cc3ccccc3o2)O1` (stereo not given) had a GHS category of 4.
The same measure for `CN(C)CCOc1nn(-c2cccc(C(F)(F)F)c2)c2ncccc12`: 4.
In turn, `CCn1cc[n+](C)c1` registered a GHS category of 5.
`CCCCCCC(=O)OCC(CC)(COC(=O)CCCCCC)COC(=O)CCCCCC` showed a GHS category of 5.
`ICC1CCC(CI)CC1` (stereo not given): the GHS category is reported as 5.
Compound `CC(C)C1=CC23CCC4C(C)(C(=O)N5CCOCC5)CCCC4(C)C2CC1C1C(=O)OC(=O)C13` (stereo not given) displayed a GHS category of 5.
`CC(O)(CC(=O)O)c1ccc(C2CCCCC2)c(Cl)c1` (stereo not given) yielded a GHS category of 4.
Regarding `COC(=O)c1ccc(N2CCC(c3ccc(Cl)cc3)=N2)cc1`, the GHS category is 5.
`CC/C(=C(/c1ccc(OCCN(C)C)cc1)c1cccc(O)c1)c1ccccc1` showed a GHS category of 5.
Compound `COc1ccc(C(=O)NCc2ccc(OCCN(C)C)cc2)cc1OC` had a GHS category of 5.
Compound `CCOC(=O)C(=O)Nc1ccncn1` showed a GHS category of 4.
In turn, `Cc1nc(N)sc1C(=O)NCc1ccccc1` showed a GHS category of 4.
The same measure for `CCOP(=O)(OCC)c1ccccc1`: 4; for `CCOC(=O)C1=C(C)NC(CCl)=C(C(=O)OCC)C1c1cccc([N+](=O)[O-])c1` (stereo not given): 4; for `CNc1ccc(Cl)cc1C(=O)c1ccccc1Cl`: 5.
Regarding `Cc1[nH]n(-c2ccccc2)c(=O)c1N=Nc1ccc(-c2ccc(N=Nc3c(C)[nH]n(-c4ccccc4)c3=O)c(Cl)c2)cc1Cl`, the GHS category is reported as 5.
In the case of `CCCCCCCCC=COCC`, the GHS category is 5.
For `COCCOc1nc(Nc2ccc(C=Cc3ccc(Nc4nc(OCCOC)nc(N(C)CCS(=O)(=O)O)n4)cc3S(=O)(=O)O)c(S(=O)(=O)O)c2)nc(N(C)CCS(=O)(=O)O)n1`, the GHS category was 5.
The compound `CC(=O)OCCC(C)CCCC(C)C` (stereo not given) had a GHS category of 5.
The compound `COc1ccc(C2(O)c3ccccc3C3=NCCN32)cc1` (stereo not given) had a GHS category of 4.
`CCCOC(C)OCCC` registered a GHS category of 5.
Compound `C/C=C/C(=O)OC` gave a GHS category of 5.
As for `CCCc1nc2ccnn2c(NCCN2CCOCC2)c1Cc1ccc(-c2ccccc2-c2nn[nH]n2)cc1`, the GHS category was 4.
The same measure for `Cc1ccc(OP(=O)(Oc2ccc(C)cc2C)Oc2ccc(C)cc2C)c(C)c1`: 5.
Compound `CCCc1c(Cc2ccc(-c3ccccc3-c3nn[nH]n3)cc2)c(=O)nc2nc(N)[nH]n12` displayed a GHS category of 4.
Regarding `CCCCCCCC(=O)OCCC(C)C`, the GHS category turned out to be 5.
`CC1CCCCCCCCCCCCC(=O)C1` (stereo not given) showed a GHS category of 5.
Compound `O=C1NC(=O)C(c2ccc(O)cc2)(c2cccs2)N1` (stereo not given) registered a GHS category of 5.
The same measure for `CO/C=C(/C(=O)OC)c1ccccc1COc1cccc(C(F)(F)F)n1`: 5.
The same measure for `CC(=O)NC(C(=O)O)C(C)(C)S` (stereo not given): 4; for `CCCN(CCC)c1c([N+](=O)[O-])cc(S(N)(=O)=O)cc1[N+](=O)[O-]`: 5.
The same measure for `CCCCCCCCCCCCCCOC(=O)CCCCCCCCCCCCC`: 5; for `CCCCCCCCCC(OC)OC`: 5; for `CCC/C=C/COC(=O)CC`: 5.
`CCCCCCCCCCOC` displayed a GHS category of 5.
Regarding `C=CCCCCCCCCC=O`, the GHS category was found to be 5.
As for `CN1C(C(=O)Nc2ccccc2)=C(O)c2ccccc2S1(=O)=O`, the GHS category is on record as 5.
The same measure for `CC(C)=CCCC(C)CCOC(=O)Cc1ccccc1` (stereo not given): 5.
The same measure for `CC(SC(=O)c1cccs1)C(=O)NC1CCSC1=O` (stereo not given): 5; for `CN[C@H](CC(N)=O)C(=O)NC(=O)[C@@H](N[C@@H]1C(=O)N2C1SC(C)(C)[C@@H]2C(=O)O)c1ccc(O)cc1` (stereo not given in full): 5; for `O=C(OCCOCCO)c1cc(O)ccc1Nc1cccc(C(F)(F)F)c1`: 4.
In turn, `COc1cc(OC)nc(NC(=O)NS(=O)(=O)c2c(-c3nnn(C)n3)cnn2C)n1` showed a GHS category of 5.
On to `CC(=O)[C@@]1(O)CC[C@H]2[C@@H]3CCC4=CC(=O)CC[C@]4(C)C3=CC[C@@]21C`, for which the GHS category stood at 5.
With `CCCCOC(=O)c1ccccc1N=Nc1c(O)c(C(=O)Nc2ccc3[nH]c(=O)[nH]c3c2)cc2ccccc12`, the GHS category is 5.
Take `CCCNC(=O)c1cnc2cc(C)ccn2c1=O`: the GHS category was 3.
In turn, `C/C=C/C/C=C\CCCCCCCCOC(C)=O` gave a GHS category of 4.
`C/C(=C\CO)CCC[C@H](C)CCC[C@H](C)CCCC(C)C` registered a GHS category of 5.
The same measure for `CC(C)CCCC(C)CCCC(C)CCCCC(C)CCCC(C)CCCC(C)C` (stereo not given): 4; for `CC(=O)N(C)C(=O)Oc1cccc2c1OC1(CCCC1)O2`: 4; for `OCC1=C[C@H](N[C@H]2C[C@H](CO)[C@@H](O[C@@H]3O[C@H](CO)[C@@H](O)[C@H](O)[C@H]3O)[C@H](O)[C@H]2O)[C@H](O)[C@@H](O)[C@@H]1O`: 5.
The same measure for `CCOC(=O)COc1cc(-c2nn(C)c(OC(F)F)c2Cl)c(F)cc1Cl`: 5.
On to `O=C1C[N+]([O-])=C(c2ccccc2)c2cc(Cl)ccc2N1`, for which the GHS category came to 5.
In turn, `CCCCCCCCCCCCSN(C)C(=O)Oc1cccc2c1OC(C)(C)C2` gave a GHS category of 3.
`CC(C)(C)c1ccc(OCC2CO2)cc1` (stereo not given) registered a GHS category of 5.
The same measure for `COc1ccc(C(=O)c2cccc(C)c2)cc1C`: 5; for `Cc1nnc(SCCCSc2nnnn2C)o1`: 4.
The same measure for `O=[N+]([O-])c1cc(C(F)(F)F)c(Cl)c([N+](=O)[O-])c1Nc1ncc(C(F)(F)F)cc1Cl`: 5; for `CCCc1nc2ncnn2c(N(CC)CC)c1Cc1ccc(-c2ccccc2-c2nn[nH]n2)cc1`: 4; for `O=C(CCn1cnc2c(=O)nc[nH]c21)Nc1ccc(C(=O)O)cc1`: 5.
The same measure for `CCCCCCCCCCCCCCCC(=O)Nc1cc(Cl)c(CC)c(Cl)c1O`: 5; for `CCC(O)OCc1c(Cl)ccc(Cl)c1Cl` (stereo not given): 5; for `CC(C)[C@H](N)C(=O)O`: 5.
Compound `CCO[Si](CN1CCOCC1)(OCC)OCC` returned a GHS category of 5.
Take `CCN(CC)CC1CC2(CC(CN(CC)CC)OC2=O)C(=O)O1` (stereo not given): the GHS category was 5.
Turning to `O=C(O)[C@@H]1C[C@@H](C2CCCCC2)CN1`, the GHS category is 5.
`CC(C)(CO)c1cc(Cl)nnc1Cl` displayed a GHS category of 4.
Consider `CN(CCO)S(=O)(=O)C(F)(F)C(F)(F)C(F)(F)C(F)(F)F`, for which the GHS category was 5.
In turn, `COc1cc2nc(N3CCN(C(=O)C4COc5ccccc5O4)CC3)nc(N)c2cc1OC` (stereo not given) registered a GHS category of 5.
`CON(C)C(=O)Nc1cc(C(C)(C)C)ns1` came in with a GHS category of 4.
With `CNC(=O)Oc1cccc2c1OC(C)O2` (stereo not given), the GHS category amounted to 3.
For the compound `C=C(C)C(=O)OCCOCCOCCCC`, the GHS category amounted to 5.
Compound `CCOC(=O)C(=O)Nc1cc(OCCOCCOC)ncn1` gave a GHS category of 4.
The same measure for `CSc1nc(N)c2c(C)coc2n1`: 5; for `N#CCC(=O)c1ccccc1Cl`: 5.
Compound `CCCCCOc1ccc(-c2ccc(C#N)cc2)cc1` yielded a GHS category of 5.
The same measure for `CC(C)(C)c1cc(Cn2c(=O)n(Cc3cc(C(C)(C)C)c(O)c(C(C)(C)C)c3)c(=O)n(Cc3cc(C(C)(C)C)c(O)c(C(C)(C)C)c3)c2=O)cc(C(C)(C)C)c1O`: 5; for `CNC(=O)C(=NNc1ccccc1)C(C)=O`: 5.
The same measure for `CC1CC(OC(=O)COc2ccc(Cl)cc2)CC(C)(C)C1` (stereo not given): 5.
On to `O=C(O)CCC(CC(=O)O)(C(=O)O)P(=O)(O)O` (stereo not given), for which the GHS category amounted to 5.
`CCCCCC(=Cc1ccccc1)C(OC)OC` gave a GHS category of 5.
As to `COCCOc1ccccc1S(=O)(=O)N=C(O)N=c1nc(OC)[nH]c(OC)n1`, the GHS category is 5.
The compound `O=c1c2cc(Cl)ccc2[nH]c2cc3c(=O)c4cc(Cl)ccc4[nH]c3cc12` displayed a GHS category of 5.
The same measure for `CNC(=O)C(=NNc1cccc(C)c1)C(C)=O`: 5; for `O=C=Nc1cccc2c(N=C=O)cccc12`: 5; for `Cc1cccc(C)c1N=C(O)c1cccnc1O`: 5.
The compound `CCN(C(=O)CCCCc1nnnn1-c1ccccc1)C1CCCCC1` returned a GHS category of 4.
`CCCCCCCCCCCC(=O)N(C)CC(=O)O` displayed a GHS category of 5.
Regarding `C=C(C#N)C(=O)OCCOC`, the GHS category is 5.
Regarding `CCCCCCCCCCCCCCOC(=O)OOC(=O)OCCCCCCCCCCCCCC`, the GHS category is recorded as 5.
The same measure for `CCCc1nc2ccnn2c(CCC)c1Cc1ccc(-c2ccccc2-c2nn[nH]n2)cc1`: 4; for `CC(C)COC(=O)Nc1nc(N2CC=CCC2)cc2nc(=O)on12`: 5.
The same measure for `COCC(=O)N(c1c(C)cccc1C)[C@H](C)C(=O)OC`: 4; for `CC1CCC(C(C)C)C(OCC(O)CO)C1` (stereo not given): 5.
